Results reported in paper PMC3469417, “Loss of Slc4a1b Chloride/Bicarbonate Exchanger Function Protects Mechanosensory Hair Cells from Aminoglycoside Damage in the Zebrafish Mutant persephone” (PLoS Genetics, 2012).

Legend:
[1] = biological target: T1, zebrafish Slc4a1b (zSlc4a1b) (Danio rerio, UniProt D1FTM8); test: […]- influx in Xenopus oocytes; type: cell-based; settings: 200 µM DIDS; inhibitor; bath Cl- 103.6 mM, pH 7.4; disodium salt
T1 construct: cRNA expressed in Xenopus laevis oocytes
T1 sequence (D1FTM8 61-851): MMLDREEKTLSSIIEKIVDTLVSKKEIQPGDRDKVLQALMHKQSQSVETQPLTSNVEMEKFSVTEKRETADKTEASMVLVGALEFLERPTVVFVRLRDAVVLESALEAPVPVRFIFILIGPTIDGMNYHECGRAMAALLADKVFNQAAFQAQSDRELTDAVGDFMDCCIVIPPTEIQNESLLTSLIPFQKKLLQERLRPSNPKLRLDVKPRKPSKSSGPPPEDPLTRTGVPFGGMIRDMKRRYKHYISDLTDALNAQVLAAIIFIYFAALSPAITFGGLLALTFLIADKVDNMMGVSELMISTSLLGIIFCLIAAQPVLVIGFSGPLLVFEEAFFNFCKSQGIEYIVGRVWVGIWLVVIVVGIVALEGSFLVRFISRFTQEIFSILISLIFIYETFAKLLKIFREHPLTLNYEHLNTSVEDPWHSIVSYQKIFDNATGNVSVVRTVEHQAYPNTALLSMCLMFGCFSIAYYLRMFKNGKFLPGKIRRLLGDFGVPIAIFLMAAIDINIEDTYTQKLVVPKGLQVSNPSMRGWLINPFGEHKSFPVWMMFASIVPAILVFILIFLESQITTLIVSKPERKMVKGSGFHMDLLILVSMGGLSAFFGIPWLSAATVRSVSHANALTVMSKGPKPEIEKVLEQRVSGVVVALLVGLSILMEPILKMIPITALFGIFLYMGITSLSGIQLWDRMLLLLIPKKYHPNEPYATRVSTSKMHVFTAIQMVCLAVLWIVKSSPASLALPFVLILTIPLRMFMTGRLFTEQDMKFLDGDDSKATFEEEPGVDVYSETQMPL

human SLC4A1 (hSlc4a1) = biological target: T2, human SLC4A1 (hSlc4a1) (Homo sapiens, UniProt P02730); test: […]- influx in Xenopus oocytes; type: cell-based; settings: 200 µM DIDS; inhibitor; bath Cl- 103.6 mM, pH 7.4; disodium salt
T2 construct: expressed in Xenopus laevis oocytes
T2 sequence (P02730 1-911): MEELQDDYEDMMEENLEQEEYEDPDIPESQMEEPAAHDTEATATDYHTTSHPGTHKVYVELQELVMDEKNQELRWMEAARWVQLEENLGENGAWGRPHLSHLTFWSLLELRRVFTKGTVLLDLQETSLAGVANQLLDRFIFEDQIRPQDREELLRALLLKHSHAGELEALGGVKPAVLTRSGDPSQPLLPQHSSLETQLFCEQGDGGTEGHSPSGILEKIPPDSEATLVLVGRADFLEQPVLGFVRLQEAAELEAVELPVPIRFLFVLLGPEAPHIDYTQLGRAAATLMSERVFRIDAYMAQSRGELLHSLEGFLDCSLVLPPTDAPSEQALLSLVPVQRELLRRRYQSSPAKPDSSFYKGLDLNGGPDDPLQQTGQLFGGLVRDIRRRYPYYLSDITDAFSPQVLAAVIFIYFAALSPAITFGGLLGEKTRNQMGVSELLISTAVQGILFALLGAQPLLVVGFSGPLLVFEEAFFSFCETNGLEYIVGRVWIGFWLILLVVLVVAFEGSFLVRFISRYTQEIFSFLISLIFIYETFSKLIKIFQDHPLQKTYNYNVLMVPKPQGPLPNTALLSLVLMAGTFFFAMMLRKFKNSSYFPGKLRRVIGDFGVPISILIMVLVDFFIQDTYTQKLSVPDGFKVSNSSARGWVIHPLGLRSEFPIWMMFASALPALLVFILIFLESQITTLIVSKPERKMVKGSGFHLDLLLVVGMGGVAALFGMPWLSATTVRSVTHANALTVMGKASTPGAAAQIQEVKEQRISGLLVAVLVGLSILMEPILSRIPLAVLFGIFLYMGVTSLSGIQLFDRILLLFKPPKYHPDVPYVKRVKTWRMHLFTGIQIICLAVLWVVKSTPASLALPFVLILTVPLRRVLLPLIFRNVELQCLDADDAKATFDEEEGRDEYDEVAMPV

Compound: O=S(=O)(O)c1cc(N=C=S)ccc1/C=C/c1ccc(N=C=S)cc1S(=O)(=O)O [DIDS, 4,4′-diisothiocyano-2,2′-stilbenedisulfonic acid]
- 36Cl- influx in Xenopus oocytes [1]: zebrafish Slc4a1b and by human SLC4A1 was abolished by treatment with the disulfonic stilbene DIDS
- 36Cl- influx in Xenopus oocytes (human SLC4A1 (hSlc4a1)): zebrafish Slc4a1b and by human SLC4A1 was abolished by treatment with the disulfonic stilbene DIDS
